pIC50: −log10 of the molar value. In brackets after ≈: the same amount, converted by molar mass. Activity calls are given as the source filed them. No cut-off for these calls is given here.
Key:
[1] = Inhibition of elastase at 100 ug/mL
[2] = target: Prothrombin (Homo sapiens) (UniProt P00734); assay: Inhibition of thrombin at 100 ug/mL
Papain (Carica papaya) = target: T1, Papain (Carica papaya) (UniProt P00784); assay: Inhibition of Carica papaya papain at 100 ug/mL
T1 sequence (whole entry): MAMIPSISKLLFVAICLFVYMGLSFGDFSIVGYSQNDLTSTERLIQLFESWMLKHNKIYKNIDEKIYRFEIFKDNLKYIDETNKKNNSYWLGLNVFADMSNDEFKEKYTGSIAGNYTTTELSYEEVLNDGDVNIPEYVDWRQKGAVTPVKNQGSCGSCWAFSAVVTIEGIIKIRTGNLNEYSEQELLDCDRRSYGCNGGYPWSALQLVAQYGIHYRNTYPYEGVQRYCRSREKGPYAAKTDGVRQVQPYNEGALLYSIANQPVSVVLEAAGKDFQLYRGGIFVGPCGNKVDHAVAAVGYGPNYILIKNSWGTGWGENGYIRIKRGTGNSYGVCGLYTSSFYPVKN

Plasminogen = Plasminogen (Homo sapiens, UniProt P00747); assay: Inhibition of plasmin
Plasminogen, sequence (P00747 97-580 limits assumed): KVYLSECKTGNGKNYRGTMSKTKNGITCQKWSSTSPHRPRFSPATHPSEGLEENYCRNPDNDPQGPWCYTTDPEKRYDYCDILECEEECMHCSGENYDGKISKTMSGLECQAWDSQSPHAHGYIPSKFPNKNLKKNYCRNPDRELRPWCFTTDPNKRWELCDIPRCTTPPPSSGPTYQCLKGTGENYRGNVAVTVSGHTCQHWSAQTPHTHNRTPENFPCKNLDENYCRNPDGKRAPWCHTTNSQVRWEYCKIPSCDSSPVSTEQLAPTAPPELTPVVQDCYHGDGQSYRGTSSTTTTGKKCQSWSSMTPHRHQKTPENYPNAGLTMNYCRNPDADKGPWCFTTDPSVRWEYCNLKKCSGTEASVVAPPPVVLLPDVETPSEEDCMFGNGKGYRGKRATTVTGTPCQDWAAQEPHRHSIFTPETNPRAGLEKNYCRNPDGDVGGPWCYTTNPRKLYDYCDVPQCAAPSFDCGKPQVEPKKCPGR
Plasminogen, sequence (P00747 581-810 limits assumed): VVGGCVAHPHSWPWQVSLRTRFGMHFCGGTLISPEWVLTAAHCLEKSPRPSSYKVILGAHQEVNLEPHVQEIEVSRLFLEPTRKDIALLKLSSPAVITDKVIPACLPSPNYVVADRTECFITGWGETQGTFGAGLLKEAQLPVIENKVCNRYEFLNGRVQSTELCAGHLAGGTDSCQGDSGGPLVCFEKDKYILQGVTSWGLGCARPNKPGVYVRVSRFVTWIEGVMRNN

[3] = Inhibition of trypsin
[4] = Inhibition of chymotrypsin at 100 ug/mL

For CC(=O)N[C@@H](/C=C1/C=C[C@H](N)CC1)C(=O)N[C@@H](/C=C1/C=C[C@H](NC(C)=O)CC1)C(=O)O [DEHYDRORADIOSUMIN], the Activity [1] was “inactive”, the Activity [2] was “inactive” and the Activity (Papain (Carica papaya)) was “inactive”. For the same compound, the pIC50 (Plasminogen) was 3.68, the IC50 [3] was 0.1 µg/mL (≈ 0.232 µM) and the Activity [4] was “inactive”.

Source: ChEMBL document CHEMBL1150915, “Dehydroradiosumin, a trypsin inhibitor from the cyanobacterium Anabaena cylindrica” (J Nat Prod, 1998)
